Measured values: the supplement of paper PMC10307832

What was measured:
Test in all cases: relative viability (nuclei count vs DMSO), 5 days (fraction); higher = more cells survive
COR-L23 = system: COR-L23
In short: (§1)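 Lung cancer cell lines were pin-tool dosed in 1536-well plates on the day after seeding, with either a lone drug or a fixed anchor-drug dose plus five library-drug doses (not always all listed) in √10 steps. Nuclei were counted on 4× images after 5 days. Relative viability is the ratio of treated-well to vehicle-well nuclei counts, with each value a median of duplicate plates.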

EMC-BAC-2 = system: EMC-BAC-2
In short: as §1

EPLC-272H = system: EPLC-272H
In short: as §1

H3255 = system: H3255
In short: as §1

HCC-44 = system: HCC-44
In short: as §1

HCC-827 = system: HCC-827
In short: as §1

LCLC-103H = system: LCLC-103H
In short: as §1

LU99A = system: LU99A
In short: as §1

NCI-H1395 = system: NCI-H1395
In short: as §1

NCI-H1563 = system: NCI-H1563
In short: as §1

NCI-H1651 = system: NCI-H1651
In short: as §1

NCI-H1793 = system: NCI-H1793
In short: as §1

NCI-H1944 = system: NCI-H1944
In short: as §1

NCI-H2023 = system: NCI-H2023
In short: as §1

NCI-H2085 = system: NCI-H2085
In short: as §1

NCI-H2087 = system: NCI-H2087
In short: as §1

NCI-H2405 = system: NCI-H2405
In short: as §1

NCI-H520 = system: NCI-H520
In short: as §1

NCI-H650 = system: NCI-H650
In short: as §1

NCI-H838 = system: NCI-H838
In short: as §1

SK-MES-1 = system: SK-MES-1
In short: as §1

COc1nc(C)cnc1NS(=O)(=O)c1cccnc1-c1ccc(-c2nnco2)cc1 [Zibotentan] + C[C@]1(O)C[C@@H](c2nc(-c3ccc4ccc(-c5ccccc5)nc4c3)c3c(N)nccn32)C1 [Linsitinib] (partner 1 µM)
relative viability (COR-L23; first compound 0.08 µM): 1.02
relative viability (COR-L23; first compound 0.253 µM): 0.748
relative viability (COR-L23; first compound 0.8 µM): 0.896
relative viability (COR-L23; first compound 2.53 µM): 1.14
relative viability (EMC-BAC-2; first compound 0.08 µM): 0.895
relative viability (EMC-BAC-2; first compound 0.253 µM): 0.785
relative viability (EMC-BAC-2; first compound 0.8 µM): 0.823
relative viability (EMC-BAC-2; first compound 2.53 µM): 0.905
relative viability (EPLC-272H; first compound 0.08 µM): 1.06
relative viability (EPLC-272H; first compound 0.253 µM): 1.23
relative viability (EPLC-272H; first compound 0.8 µM): 1.33
relative viability (EPLC-272H; first compound 2.53 µM): 1.22
relative viability (H3255; first compound 0.08 µM): 1.02
relative viability (H3255; first compound 0.253 µM): 0.998
relative viability (H3255; first compound 0.8 µM): 0.899
relative viability (H3255; first compound 2.53 µM): 0.983
relative viability (HCC-44; first compound 0.08 µM): 0.759
relative viability (HCC-44; first compound 0.253 µM): 0.614
relative viability (HCC-44; first compound 0.8 µM): 0.747
relative viability (HCC-44; first compound 2.53 µM): 0.703
relative viability (HCC-827; first compound 0.08 µM): 0.994
relative viability (HCC-827; first compound 0.253 µM): 0.993
relative viability (HCC-827; first compound 0.8 µM): 0.98
relative viability (HCC-827; first compound 2.53 µM): 0.988
relative viability (LCLC-103H; first compound 0.08 µM): 1.09
relative viability (LCLC-103H; first compound 0.253 µM): 0.951
relative viability (LCLC-103H; first compound 0.8 µM): 1.06
relative viability (LCLC-103H; first compound 2.53 µM): 1.2
relative viability (LU99A; first compound 0.08 µM): 0.602
relative viability (LU99A; first compound 0.253 µM): 0.528
relative viability (LU99A; first compound 0.8 µM): 0.521
relative viability (LU99A; first compound 2.53 µM): 0.602
relative viability (NCI-H1395; first compound 0.08 µM): 1.39
relative viability (NCI-H1395; first compound 0.253 µM): 1.07
relative viability (NCI-H1395; first compound 0.8 µM): 1.05
relative viability (NCI-H1395; first compound 2.53 µM): 1.08
relative viability (NCI-H1563; first compound 0.08 µM): 1.17
relative viability (NCI-H1563; first compound 0.253 µM): 0.789
relative viability (NCI-H1563; first compound 0.8 µM): 1.39
relative viability (NCI-H1563; first compound 2.53 µM): 1.34
relative viability (NCI-H1651; first compound 0.08 µM): 1.17
relative viability (NCI-H1651; first compound 0.253 µM): 0.949
relative viability (NCI-H1651; first compound 0.8 µM): 0.92
relative viability (NCI-H1651; first compound 2.53 µM): 0.849
relative viability (NCI-H1793; first compound 0.08 µM): 0.811
relative viability (NCI-H1793; first compound 0.253 µM): 0.824
relative viability (NCI-H1793; first compound 0.8 µM): 1.05
relative viability (NCI-H1793; first compound 2.53 µM): 1.01
relative viability (NCI-H1944; first compound 0.08 µM): 1.19
relative viability (NCI-H1944; first compound 0.253 µM): 1.12
relative viability (NCI-H1944; first compound 0.8 µM): 1.1
relative viability (NCI-H1944; first compound 2.53 µM): 1.15
relative viability (NCI-H2023; first compound 0.08 µM): 0.57
relative viability (NCI-H2023; first compound 0.253 µM): 0.544
relative viability (NCI-H2023; first compound 0.8 µM): 0.743
relative viability (NCI-H2023; first compound 2.53 µM): 0.654
relative viability (NCI-H2085; first compound 0.08 µM): 0.852
relative viability (NCI-H2085; first compound 0.253 µM): 0.818
relative viability (NCI-H2085; first compound 0.8 µM): 0.944
relative viability (NCI-H2085; first compound 2.53 µM): 0.944
relative viability (NCI-H2087; first compound 0.08 µM): 1.2
relative viability (NCI-H2087; first compound 0.253 µM): 0.971
relative viability (NCI-H2087; first compound 0.8 µM): 1.07
relative viability (NCI-H2087; first compound 2.53 µM): 0.914
relative viability (NCI-H2405; first compound 0.08 µM): 1.07
relative viability (NCI-H2405; first compound 0.253 µM): 0.796
relative viability (NCI-H2405; first compound 0.8 µM): 0.908
relative viability (NCI-H2405; first compound 2.53 µM): 0.959
relative viability (NCI-H520; first compound 0.08 µM): 1.05
relative viability (NCI-H520; first compound 0.253 µM): 0.892
relative viability (NCI-H520; first compound 0.8 µM): 0.904
relative viability (NCI-H520; first compound 2.53 µM): 1.02
relative viability (NCI-H650; first compound 0.08 µM): 1
relative viability (NCI-H650; first compound 0.253 µM): 0.676
relative viability (NCI-H650; first compound 0.8 µM): 1.02
relative viability (NCI-H650; first compound 2.53 µM): 0.881
relative viability (NCI-H838; first compound 0.08 µM): 1.02
relative viability (NCI-H838; first compound 0.253 µM): 0.957
relative viability (NCI-H838; first compound 0.8 µM): 1
relative viability (NCI-H838; first compound 2.53 µM): 0.959
relative viability (SK-MES-1; first compound 0.08 µM): 1.12
relative viability (SK-MES-1; first compound 0.253 µM): 1
relative viability (SK-MES-1; first compound 0.8 µM): 1.05
relative viability (SK-MES-1; first compound 2.53 µM): 1.14
